Common to all, as to assay: Inhibition of c-Kit, PDGFRα, PDGFRβ, CSFIR and FLT3 Kinase Activity Assay
The target in assay [1] is Macrophage colony-stimulating factor 1 receptor (Homo sapiens, UniProt P07333). As for the experimental part:
(§1) On the day of the assay, compounds were solubilized in DMSO and dispensed into a 384-well white Opti-plate (PerkinElmer, catalog #6007290) to generate a 22 point 1:2 titration. Enzyme solution was prepared for each of the tyrosine kinases in 50 mM HEPES, pH 7.4, 5 mM MgCl2 for c-Kit or 10 mM MgCl2 for FLT3, CSFIR, PDGFRa and PDGFRβ, 2 mM MnCl2, 0.01% Brij-35 and 0.01% BSA. Working enzyme concentrations were prepared for c-Kit at 2 nM (2×), PDGFRa and PDGFR at 10 nM (2×), CSFIR at 2 nM (2×) and FLT3 at 0.4 nM (2×). Five microliters of enzyme dilution of each tyrosine kinase were added to their respective 384-well white Opti-plate pre-dispensed with compound and allowed to incubate for 1 h at rt. Utilizing the same enzyme buffer recipe, 2x substrate mixes were prepared for each enzyme as follows: For c-Kit, 1.6 μM (2×) TK substrate and 16 μM (2×) ATP (Promega, catalog #V915). For PDGFRα, 3.2 μM TK substrate and 1 μM ATP. For PDGFRβ, 3.2 μM TK substrate and 40 μM ATP. For CSFIR, […] TK substrate and 20 μM ATP. For FLT3, 3.2 μM TK substrate and 100 μM ATP. Reactions were initiated by addition of 5 μL of the respective 2x substrate mix to each well of the plates containing the respective tyrosine kinase enzymes and were allowed to proceed for 120 minutes at rt, except for FLT3, the reaction time is 45 min. Following the reaction, 10 μL of detection mix consisting of 0.2 μM (2×) of Streptavidin-XL665 and 2 μM (2×) of TK-Antibody-Cryptate prepared in detection buffer (Part 62SDBRDF of KinEASE assay kit) was added and then allowed to incubate for 60 min. The TR-FRET signal was quantified by measuring the ratio of emission at 665 nm to 620 nm after excitation at 320 nm by reading on a PerkinElmer Envision multimode reader. Compound potencies (IC50 values) were determined using a standard 4-parameter non-linear regression fit.

Assay [2] addresses Mast/stem cell growth factor receptor Kit (Homo sapiens, UniProt P10721). As for the experimental part:
as §1

In assay [3] the target is Platelet-derived growth factor receptor alpha (Homo sapiens, UniProt P16234). As for the experimental part:
as §1

In assay [4] the target is Platelet-derived growth factor receptor beta (Homo sapiens, UniProt P09619). On the procedure: as §1
Platelet-derived growth factor receptor beta, sequence (P09619 whole entry): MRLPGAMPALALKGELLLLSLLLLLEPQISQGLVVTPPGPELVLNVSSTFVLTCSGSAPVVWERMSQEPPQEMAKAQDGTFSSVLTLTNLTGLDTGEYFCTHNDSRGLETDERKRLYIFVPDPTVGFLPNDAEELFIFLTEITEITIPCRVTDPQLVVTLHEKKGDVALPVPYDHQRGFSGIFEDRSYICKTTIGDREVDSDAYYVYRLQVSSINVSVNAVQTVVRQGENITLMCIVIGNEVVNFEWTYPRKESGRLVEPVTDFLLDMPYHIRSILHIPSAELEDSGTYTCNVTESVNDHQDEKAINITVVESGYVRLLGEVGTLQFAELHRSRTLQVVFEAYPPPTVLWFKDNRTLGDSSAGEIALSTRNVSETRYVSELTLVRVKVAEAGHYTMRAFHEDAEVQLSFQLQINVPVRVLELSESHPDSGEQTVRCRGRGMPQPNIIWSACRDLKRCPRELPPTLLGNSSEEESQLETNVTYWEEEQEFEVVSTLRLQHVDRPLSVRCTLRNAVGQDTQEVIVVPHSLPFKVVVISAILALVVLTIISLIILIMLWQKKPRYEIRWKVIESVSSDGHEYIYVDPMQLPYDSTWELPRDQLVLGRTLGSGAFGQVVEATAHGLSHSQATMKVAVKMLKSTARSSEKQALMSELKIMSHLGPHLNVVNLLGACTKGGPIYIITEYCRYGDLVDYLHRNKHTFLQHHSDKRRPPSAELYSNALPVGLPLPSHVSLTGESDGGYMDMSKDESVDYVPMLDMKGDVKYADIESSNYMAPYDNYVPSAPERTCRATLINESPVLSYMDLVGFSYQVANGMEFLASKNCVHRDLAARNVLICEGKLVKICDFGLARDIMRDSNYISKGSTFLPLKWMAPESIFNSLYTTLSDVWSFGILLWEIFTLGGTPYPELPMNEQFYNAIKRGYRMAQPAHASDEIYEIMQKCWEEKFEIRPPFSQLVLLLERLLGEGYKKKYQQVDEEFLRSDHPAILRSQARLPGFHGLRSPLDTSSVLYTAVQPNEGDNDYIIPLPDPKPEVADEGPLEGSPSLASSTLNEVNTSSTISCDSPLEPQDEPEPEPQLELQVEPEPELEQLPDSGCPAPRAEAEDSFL

Platelet-derived growth factor receptor alpha, sequence (P16234 whole entry): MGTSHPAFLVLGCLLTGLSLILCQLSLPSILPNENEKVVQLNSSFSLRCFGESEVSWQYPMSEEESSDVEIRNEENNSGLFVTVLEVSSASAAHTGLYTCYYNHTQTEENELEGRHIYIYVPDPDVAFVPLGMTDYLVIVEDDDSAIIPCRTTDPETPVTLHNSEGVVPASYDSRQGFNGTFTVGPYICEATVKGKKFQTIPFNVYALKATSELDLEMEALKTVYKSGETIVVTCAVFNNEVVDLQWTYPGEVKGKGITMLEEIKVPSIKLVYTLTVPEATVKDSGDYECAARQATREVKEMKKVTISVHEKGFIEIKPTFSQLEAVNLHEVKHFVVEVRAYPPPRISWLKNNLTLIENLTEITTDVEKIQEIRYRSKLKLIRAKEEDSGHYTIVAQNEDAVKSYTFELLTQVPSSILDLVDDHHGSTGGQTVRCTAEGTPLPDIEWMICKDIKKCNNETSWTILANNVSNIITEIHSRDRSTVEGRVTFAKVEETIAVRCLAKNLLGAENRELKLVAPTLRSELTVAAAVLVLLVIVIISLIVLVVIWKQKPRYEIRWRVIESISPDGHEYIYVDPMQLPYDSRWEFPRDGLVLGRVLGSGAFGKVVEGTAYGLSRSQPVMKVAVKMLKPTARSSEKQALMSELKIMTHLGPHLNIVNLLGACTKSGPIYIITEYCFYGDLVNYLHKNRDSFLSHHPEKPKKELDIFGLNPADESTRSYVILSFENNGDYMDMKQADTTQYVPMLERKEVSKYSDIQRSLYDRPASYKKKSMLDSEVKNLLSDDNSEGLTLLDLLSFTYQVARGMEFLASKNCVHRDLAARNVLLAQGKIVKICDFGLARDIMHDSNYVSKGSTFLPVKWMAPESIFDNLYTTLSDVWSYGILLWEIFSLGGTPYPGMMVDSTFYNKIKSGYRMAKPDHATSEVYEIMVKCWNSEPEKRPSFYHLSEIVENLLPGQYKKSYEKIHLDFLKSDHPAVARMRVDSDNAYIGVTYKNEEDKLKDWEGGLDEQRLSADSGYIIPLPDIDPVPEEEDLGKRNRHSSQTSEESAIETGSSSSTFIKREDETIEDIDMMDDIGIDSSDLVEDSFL
Macrophage colony-stimulating factor 1 receptor, sequence (P07333 whole entry): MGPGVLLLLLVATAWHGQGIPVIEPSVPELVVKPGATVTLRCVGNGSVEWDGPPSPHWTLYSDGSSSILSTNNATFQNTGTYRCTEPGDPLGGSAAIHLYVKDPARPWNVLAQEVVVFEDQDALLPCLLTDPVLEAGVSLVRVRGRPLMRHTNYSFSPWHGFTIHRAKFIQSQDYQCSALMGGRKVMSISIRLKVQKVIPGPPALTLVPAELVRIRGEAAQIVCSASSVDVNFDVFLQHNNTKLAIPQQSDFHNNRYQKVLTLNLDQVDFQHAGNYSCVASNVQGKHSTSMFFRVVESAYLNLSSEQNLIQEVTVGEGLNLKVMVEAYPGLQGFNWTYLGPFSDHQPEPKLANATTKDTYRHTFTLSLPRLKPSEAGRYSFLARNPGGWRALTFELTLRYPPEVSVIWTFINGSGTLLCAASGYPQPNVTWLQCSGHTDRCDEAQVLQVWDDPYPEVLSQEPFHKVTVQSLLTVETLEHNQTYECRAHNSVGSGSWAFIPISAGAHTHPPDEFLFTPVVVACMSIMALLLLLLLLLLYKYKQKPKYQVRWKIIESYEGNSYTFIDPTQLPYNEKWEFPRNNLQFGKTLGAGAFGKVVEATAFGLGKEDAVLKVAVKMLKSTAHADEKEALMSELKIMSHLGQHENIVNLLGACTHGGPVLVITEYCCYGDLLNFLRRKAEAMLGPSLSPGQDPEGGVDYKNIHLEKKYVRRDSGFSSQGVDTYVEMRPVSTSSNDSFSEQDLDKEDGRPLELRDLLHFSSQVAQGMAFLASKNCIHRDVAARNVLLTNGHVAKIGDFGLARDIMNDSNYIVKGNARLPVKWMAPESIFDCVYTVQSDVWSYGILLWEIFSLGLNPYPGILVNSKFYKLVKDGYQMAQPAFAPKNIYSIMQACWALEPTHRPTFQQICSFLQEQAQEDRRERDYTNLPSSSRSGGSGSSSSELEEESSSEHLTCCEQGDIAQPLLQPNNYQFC
Mast/stem cell growth factor receptor Kit, sequence (P10721 whole entry): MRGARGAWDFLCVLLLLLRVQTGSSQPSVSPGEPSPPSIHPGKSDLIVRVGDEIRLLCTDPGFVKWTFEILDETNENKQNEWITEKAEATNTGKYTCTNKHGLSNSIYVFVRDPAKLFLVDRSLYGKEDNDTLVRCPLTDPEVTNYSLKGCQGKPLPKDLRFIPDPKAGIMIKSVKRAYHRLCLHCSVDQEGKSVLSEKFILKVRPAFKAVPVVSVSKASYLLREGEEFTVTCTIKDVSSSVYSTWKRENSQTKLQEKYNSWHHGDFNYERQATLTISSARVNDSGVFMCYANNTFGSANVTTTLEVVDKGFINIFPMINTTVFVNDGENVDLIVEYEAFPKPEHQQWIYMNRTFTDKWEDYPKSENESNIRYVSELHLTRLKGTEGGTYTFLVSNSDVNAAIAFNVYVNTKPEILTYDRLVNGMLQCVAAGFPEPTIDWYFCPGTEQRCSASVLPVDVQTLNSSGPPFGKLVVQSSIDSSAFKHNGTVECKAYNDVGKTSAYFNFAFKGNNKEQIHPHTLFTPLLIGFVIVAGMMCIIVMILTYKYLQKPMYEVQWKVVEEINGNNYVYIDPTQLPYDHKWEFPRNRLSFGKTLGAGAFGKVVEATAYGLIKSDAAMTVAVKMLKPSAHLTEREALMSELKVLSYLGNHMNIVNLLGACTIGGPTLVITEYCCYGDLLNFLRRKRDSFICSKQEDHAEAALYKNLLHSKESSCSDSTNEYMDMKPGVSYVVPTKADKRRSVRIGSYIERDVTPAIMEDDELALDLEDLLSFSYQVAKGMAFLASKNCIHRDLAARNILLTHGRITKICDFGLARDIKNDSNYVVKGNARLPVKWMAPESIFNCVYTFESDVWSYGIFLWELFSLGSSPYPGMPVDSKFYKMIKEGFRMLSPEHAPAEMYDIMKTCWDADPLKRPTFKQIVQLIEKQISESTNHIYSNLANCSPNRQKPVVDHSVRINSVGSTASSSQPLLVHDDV

Take `Cc1cc(F)c(C(=O)Nc2cn[nH]c2)cc1NC(=O)c1cnc(N)s1` [US20250145606, Example 157]: the IC50 (commonly the point on the concentration scale where inhibition reaches its midpoint) in assay [1] is greater than 1000 nM; in assay [2], less than 100 nM; in assay [3], greater than 1000 nM; in assay [4] it was greater than 1000 nM.

As to `Cc1ncc(C(=O)Nc2cc(C(=O)NCc3cccnc3)c(F)cc2C)s1` [US20250145606, Example 12], the IC50 in assay [1], in assay [3] and in assay [4] was greater than 1000 nM in each case.

Values taken from BindingDB's records for patent US20250145606 (Arcus Biosciences, 2025).
